From article PMC8084100, “Bypassing the requirement for aminoacyl-tRNA by a cyclodipeptide synthase enzyme” (RSC Chemical Biology, 2021)

Columns and labels:
[1] = molecular target: T1, BtCDPS (Caldibacillus thermoamylovorans, UniProt A0A090KS30); experiment: LC-MS of cyclic dipeptide product; assay type: biochemical; settings: 50 mM HEPES pH 7.5, 500 mM NaCl, 5 mM DTT, 1 mM substrate, 20 °C, 24 h
T1 construct: gene yvmC; full length (residues 1-232), codon-optimised synthetic gene, TEV-cleavable His6 tag cut, E. coli BL21(DE3), monomer

[2] = molecular target: T1, BtCDPS; experiment: LC-HRMS of cLL product; HPLC of DBE-OH; intact protein MS of acyl-enzyme; assay type: biochemical; settings: 50 mM HEPES pH 7.5, 500 mM NaCl, 5 mM DTT, 500 uM substrate, room temperature; covalent (leucyl-enzyme intermediate at S33)

T1 sequence (A0A090KS30 1-231): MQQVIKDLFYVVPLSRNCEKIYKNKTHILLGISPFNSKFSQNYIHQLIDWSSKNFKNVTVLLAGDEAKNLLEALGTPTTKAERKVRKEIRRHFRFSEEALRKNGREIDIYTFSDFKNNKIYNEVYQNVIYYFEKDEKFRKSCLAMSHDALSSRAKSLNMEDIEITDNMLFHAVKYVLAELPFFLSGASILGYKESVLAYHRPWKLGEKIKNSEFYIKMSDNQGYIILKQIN

Structure (SMILES)	LC-MS of cyclic dipeptide product [1]	LC-HRMS of cLL product; HPLC of DBE-OH; intact protein MS of acyl-enzyme [2]
CC[C@H](C)[C@H](N)C(=O)OCc1cc([N+](=O)[O-])cc([N+](=O)[O-])c1 [Ile-DBE]	Ile-DBE and Met-DBE were also substrates for BtCDPS	–
CC(C)C[C@H](N)C(=O)OCc1cc([N+](=O)[O-])cc([N+](=O)[O-])c1 [Leu-DBE]	–	a cyclic dipeptide (cLL) is generated by CDPS when Leu-DBE was used as a substrate
CSCC[C@H](N)C(=O)OCc1cc([N+](=O)[O-])cc([N+](=O)[O-])c1 [Met-DBE]	Ile-DBE and Met-DBE were also substrates for BtCDPS	–
